Laboratory results: ChEMBL document CHEMBL1201862, “PubChem BioAssay data set” (2004)
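Each compound was tested at five concentrations against cells in 96-well plates for 48 hours. Abbreviation: GI50, concentration required for 50% inhibition of growth.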 Calls of active or inactive are those of the source. Rule as the data show it: active = GI50 up to about 1.1 µM and inactive = higher. Where a SMILES comes first, the peptide text is derived from it. [ ]: non-standard residue; d: D form. The star is where a group is joined. Phe(4-NO2) = N[CH](Cc1ccc([N+](=O)[O-])cc1)C(=O)O; Boc = CC(C)(C)OC(=O)*

How the values were obtained:
Test in all cases: NCI anticancer screen, dose series, 48 h
MCF7 = tested on: MCF7
SNB-19 = tested on: SNB-19
MDA-MB-435 = tested on: MDA-MB-435
CAKI-1 = tested on: CAKI-1
SK-OV-3 = tested on: SK-OV-3
MDA-N = tested on: MDA-N
UO-31 = tested on: UO-31
HT-29 = tested on: HT-29
HCT-15 = tested on: HCT-15
HL-60 = tested on: HL-60
HOP-62 = tested on: HOP-62
LOX IMVI = tested on: LOX IMVI
OVCAR-3 = tested on: OVCAR-3
COLO 205 = tested on: COLO 205
CCRF-CEM = tested on: CCRF-CEM
Malme-3M = tested on: Malme-3M
SF-268 = tested on: SF-268
SF-539 = tested on: SF-539
K562 = tested on: K562
HCC 2998 = tested on: HCC 2998

Compound | GI50 (MCF7) | GI50 (SNB-19) | GI50 (MDA-MB-435) | GI50 (CAKI-1) | GI50 (SK-OV-3) | GI50 (MDA-N) | GI50 (UO-31) | GI50 (HT-29) | GI50 (HCT-15) | GI50 (HL-60) | GI50 (HOP-62) | GI50 (LOX IMVI) | GI50 (OVCAR-3) | GI50 (COLO 205) | GI50 (CCRF-CEM) | GI50 (Malme-3M) | GI50 (SF-268) | GI50 (SF-539) | GI50 (K562) | GI50 (HCC 2998)
Cn1c(=O)c2nc(SCCN3CCOCC3)[nH]c2n(C)c1=S | > 100 µM (inactive) | > 100 µM (inactive) | > 100 µM (inactive) | > 100 µM (inactive) | > 100 µM (inactive) | > 100 µM (inactive) | > 100 µM (inactive) | > 100 µM (inactive) | > 100 µM | > 100 µM (inactive) | > 100 µM (inactive) | > 100 µM (inactive) | > 100 µM (inactive) | > 100 µM (inactive) | > 100 µM (inactive) | > 100 µM (inactive) | > 100 µM (inactive) | > 100 µM (inactive) | > 100 µM (inactive) | 
COc1cc2c(OC)c3cc(C)oc(=O)c3c(O)c2c(O)c1-c1c(OC)cc2c(OC)c3cc(C)oc(=O)c3c(O)c2c1O | 25.6 µM (inactive) | 25.2 µM (inactive) | 18.2 µM (inactive) | 15.2 µM (inactive) | 45.2 µM (inactive) |  | 18.5 µM (inactive) | 22 µM (inactive) | 18.5 µM | 15.2 µM (inactive) | 15.2 µM (inactive) | 19.6 µM (inactive) | 16.6 µM (inactive) |  | 18.6 µM (inactive) | 17.7 µM (inactive) | 21.5 µM (inactive) | 17.6 µM (inactive) | 16.4 µM (inactive) | 18.9 µM (inactive)
CCOC(=O)C(C)c1nc2c(Cl)c3ncccc3cc2[nH]c1=O (centres undefined) |  | > 100 µM (inactive) | 84.5 µM (inactive) | 69.5 µM (inactive) | > 100 µM (inactive) | > 100 µM (inactive) | 23.7 µM (inactive) | 30.7 µM (inactive) | 57.3 µM |  | 34.1 µM (inactive) | > 100 µM (inactive) | 57.3 µM (inactive) | > 100 µM (inactive) | 28.2 µM (inactive) | > 100 µM (inactive) | 41 µM (inactive) |  | 34 µM (inactive) | 
O=C(C(Cl)Cl)N(O)c1ccccc1OCc1ccccc1 | 56.5 µM (inactive) | 57.7 µM (inactive) | 43.2 µM (inactive) | 85.9 µM (inactive) | > 100 µM (inactive) |  | 36.9 µM (inactive) | 17.2 µM (inactive) | 44.2 µM | 27.6 µM (inactive) | > 100 µM (inactive) | 43.9 µM (inactive) | 27.7 µM (inactive) | 17 µM (inactive) | 1.79 µM (inactive) | 81.8 µM (inactive) | 73.3 µM (inactive) | 31.3 µM (inactive) | 37.6 µM (inactive) | 1.9 µM (inactive)
Cc1ccc(-c2[nH]c(=O)n(C3OC(CO)C(O)C(O)C3O)c(=O)c2C#N)cc1 (centres undefined) | > 100 µM (inactive) | > 100 µM (inactive) | > 100 µM (inactive) | > 100 µM (inactive) | > 100 µM (inactive) |  | > 100 µM (inactive) | > 100 µM (inactive) | > 100 µM | > 100 µM (inactive) | > 100 µM (inactive) |  | > 100 µM (inactive) | > 100 µM (inactive) | > 100 µM (inactive) |  | > 100 µM (inactive) | > 100 µM (inactive) | > 100 µM (inactive) | > 100 µM (inactive)
CCCNC1=Nc2ccccc2NC(C)C1 (centres undefined) |  | > 100 µM (inactive) | > 100 µM (inactive) | > 100 µM (inactive) | > 100 µM (inactive) | > 100 µM (inactive) | > 100 µM (inactive) | > 100 µM (inactive) | > 100 µM | > 100 µM (inactive) | > 100 µM (inactive) |  | > 100 µM (inactive) | > 100 µM (inactive) | > 100 µM (inactive) | 79.6 µM (inactive) | > 100 µM (inactive) |  | > 100 µM (inactive) | 
CCCCOC(=O)CNC(=O)OC/C=C/C#CC#C/C=C/COC(=O)NCC(=O)OCCCC |  | > 10 µM (inactive) |  | > 10 µM (inactive) | > 10 µM (inactive) |  | > 10 µM (inactive) | > 10 µM (inactive) | > 10 µM | > 10 µM (inactive) | > 10 µM (inactive) | > 10 µM (inactive) | > 10 µM (inactive) | > 10 µM (inactive) | > 10 µM (inactive) | > 10 µM (inactive) | > 10 µM (inactive) | > 10 µM (inactive) | > 10 µM (inactive) | > 10 µM (inactive)
CC#CCCCC1(C)CCCNC1=S (centres undefined) | > 10 µM (inactive) | > 10 µM (inactive) | > 10 µM (inactive) |  | > 10 µM (inactive) |  | > 10 µM (inactive) | > 10 µM (inactive) | > 10 µM | > 10 µM (inactive) |  | > 10 µM (inactive) | > 10 µM (inactive) |  | > 10 µM (inactive) | > 10 µM (inactive) | > 10 µM (inactive) | > 10 µM (inactive) | > 10 µM (inactive) | 
OC(c1ccccc1)C(F)(F)c1nc2ccccc2o1 (centres undefined) | > 100 µM (inactive) | > 100 µM (inactive) | 82 µM (inactive) | > 100 µM (inactive) | > 100 µM (inactive) |  | > 100 µM (inactive) | > 100 µM (inactive) | > 100 µM | > 100 µM (inactive) | > 100 µM (inactive) | > 100 µM (inactive) |  | > 100 µM (inactive) | 61.2 µM (inactive) |  | > 100 µM (inactive) | > 100 µM (inactive) | 27.9 µM (inactive) | > 100 µM (inactive)
CNC(Cc1ccccc1)c1cccc(OC)c1O (centres undefined) |  | > 100 µM (inactive) | > 100 µM (inactive) | > 100 µM (inactive) |  | 99.3 µM (inactive) | > 100 µM (inactive) | 91.6 µM (inactive) | > 100 µM |  | > 100 µM (inactive) | > 100 µM (inactive) | 60.5 µM (inactive) |  |  | > 100 µM (inactive) | > 100 µM (inactive) |  | 98.2 µM (inactive) | 
Nc1ccc(SC23CC4CC(CC(C4)C2)C3)cc1 | 61.8 µM (inactive) | > 100 µM (inactive) | > 100 µM (inactive) | > 100 µM (inactive) | > 100 µM (inactive) |  | > 100 µM (inactive) | > 100 µM (inactive) | > 100 µM | > 100 µM (inactive) | > 100 µM (inactive) | > 100 µM (inactive) | > 100 µM (inactive) | > 100 µM (inactive) | > 100 µM (inactive) | > 100 µM (inactive) | 54.5 µM (inactive) | > 100 µM (inactive) | > 100 µM (inactive) | > 100 µM (inactive)
CSC1=Nc2ccccc2-c2nc(-c3ccccc3)cc(-c3ccccc3)c2C1 |  | 6.4 µM (inactive) | 22.2 µM (inactive) | 12.4 µM (inactive) | 12.2 µM (inactive) | 26.5 µM (inactive) | 23.5 µM (inactive) | 30.5 µM (inactive) | 31.6 µM | > 100 µM (inactive) | 19.8 µM (inactive) | 23.2 µM (inactive) |  | 55 µM (inactive) | > 100 µM (inactive) |  |  | 19.2 µM (inactive) | 30.8 µM (inactive) | 41.6 µM (inactive)
Cc1c(N2C(=O)C(Cl)C2/C=C/c2ccccc2)c(=O)n(-c2ccccc2)n1C (centres undefined) | 24.7 µM (inactive) |  | 12.1 µM (inactive) | 53 µM (inactive) | 32 µM (inactive) | 14.4 µM (inactive) | 28.1 µM (inactive) | 24.4 µM (inactive) |  | 20.1 µM (inactive) | 22.8 µM (inactive) | 17.3 µM (inactive) | 20.8 µM (inactive) | 14.1 µM (inactive) | 16.1 µM (inactive) | 5.75 µM (inactive) | 29.6 µM (inactive) | 22.4 µM (inactive) | 6.58 µM (inactive) | 
CCN1CCCC(C#N)(c2ccccc2)CC1 (centres undefined) |  | > 100 µM (inactive) |  | > 100 µM (inactive) | > 100 µM (inactive) | > 100 µM (inactive) | > 100 µM (inactive) | > 100 µM (inactive) | > 100 µM | > 100 µM (inactive) | > 100 µM (inactive) |  |  | > 100 µM (inactive) | > 10 µM (inactive) | > 100 µM (inactive) | > 100 µM (inactive) |  | > 100 µM (inactive) | > 100 µM (inactive)
COc1cccc(/C(CC(O)(C(F)(F)F)C(F)(F)F)=N\N(C)C)c1 |  | > 100 µM (inactive) | > 100 µM (inactive) | > 100 µM (inactive) | > 100 µM (inactive) | > 100 µM (inactive) | > 100 µM (inactive) | > 100 µM (inactive) | > 100 µM | > 100 µM (inactive) | > 100 µM (inactive) | > 100 µM (inactive) | > 100 µM (inactive) | > 100 µM (inactive) | > 100 µM (inactive) | > 100 µM (inactive) | > 100 µM (inactive) | > 100 µM (inactive) | > 100 µM (inactive) | > 100 µM (inactive)
CCOC(=O)CCC(NC(=O)C(Cc1ccc([N+](=O)[O-])cc1)NC(=O)OC(C)(C)C)C(=O)NC(CCC(=O)OCC)C(=O)OCC (centres undefined) (Boc-[Phe(4-NO2)]-Glu(OEt)-Glu(OEt)-OEt; configuration not given here) | 28 µM (inactive) | 95.9 µM (inactive) |  |  |  | 21.1 µM (inactive) | > 100 µM (inactive) | 16.3 µM (inactive) | 36 µM | 14.9 µM (inactive) | 24.2 µM (inactive) |  |  | 21.2 µM (inactive) |  | 18.2 µM (inactive) |  |  | > 10 µM (inactive) | 15.8 µM (inactive)
Nc1ccc(S(=O)(=O)Nc2cnc3ccccc3n2)cc1 [SULFAQUINOXALINE] |  | > 100 µM (inactive) | > 100 µM (inactive) | > 100 µM (inactive) | > 100 µM (inactive) | > 100 µM (inactive) | > 100 µM (inactive) | > 100 µM (inactive) | > 100 µM | > 100 µM (inactive) | > 100 µM (inactive) | > 100 µM (inactive) | > 100 µM (inactive) | > 100 µM (inactive) | > 100 µM (inactive) | > 96.6 µM (inactive) | > 87.9 µM (inactive) | > 100 µM (inactive) | > 100 µM (inactive) | > 100 µM (inactive)
